In patent US20100137376A1 (priority 2007, published 2010):

Key:
Stagonospora nodorum = assay: Test of Preventive Effect on Wheat Glume Blotch; assay type: in vivo; settings: wheat (Shirogane), foliage application 500 ppm before inoculation, 18° C. 4 days dark high humidity then 4 days lighting
Procedure: (§1) In the following Test Examples, foliage application was accomplished by spraying each test solution over a different plant.
(§2) The controlling effect was evaluated by visually observing the area or lesion spots on each of test plants at the time of investigation and comparing the area of lesion spots on a plant treated with the present compound with that on an untreated plant.
Each of plastic pots was filled with sandy loam and sown with wheat (cultivar; Shirogane), followed by growing in a greenhouse for 10 days.
Each of the present compounds 1 and 3 to 37 was formulated into a flowable formulation according to Formulation Example 6. The flowable formulation was diluted to a predetermined concentration (500 ppm) with water, and foliage application of the dilution was carried out so that the dilution could adhere sufficiently to the surfaces of leaves of the grown wheat seedling.
The wheat which was applied by the dilution was air-dried and then inoculated by spraying a water suspension of spores of Stagonospora nodorum.
After the inoculation, the plant was held under darkness and high humidity conditions at 18° C. for 4 days and then under lighting conditions for 4 days, and then the area of lesion spots was investigated.

Septoria tritici = assay: Test of Preventive Effect on Wheat Leaf Blotch; assay type: in vivo; settings: wheat (Apogee), foliage application 500 ppm, inoculation after 3 or 4 days, 18° C. high humidity 3 days then lighting 14 to 18 days
Procedure: as §1, §2
Each of plastic pots was filled with sandy loam and sown with wheat (cultivar: Apogee), followed by growing in a greenhouse for 10 days. Each of the present compounds 49 to 52 was formulated into a flowable formulation according to Formulation Example 6. The flowable formulation was diluted to a predetermined concentration (500 ppm) with water, and foliage application of the dilution was carried out so that the dilution could adhere sufficiently to the surfaces of leaves of the grown wheat seedling. After the application, the plant was air-dried. After 3 or 4 days, the plant was inoculated by spraying a water suspension of spores of Septoria tritici. After the inoculation, the plant was held under high humidity conditions at 18° C. for 3 days and then under lighting condition for 14 to 18 days. Then, the area of lesion spots was investigated.

SMILES | area of lesion spots on the treated plant relative to that on an untreated plant (Stagonospora nodorum) | area of lesion spots on the treated plant relative to that on an untreated plant (Septoria tritici)
O=C(NCC1CCCCC1)c1ccnc(F)c1 [compound 4] | ≤ 30% | –
CC1CCCCC1NC(=O)c1cc(N)nc(F)c1 (centres unmarked) [compound 50] | – | ≤ 30%
